# Data taken from US6448227B1, “Therapeutically effective substance mixture” (priority 1999, dated 2002).
# Where two headings read alike, the source gives them in different places.
# Key:
# HSV-1 (McIntyre Strain) = test: HSV-1 replication in human foreskin fibroblasts (virus titre); format: cell-based, Herpes Simplex virus; conditions: for Virus titre: human fibroblasts; for Reduction factor: virus titre vs untreated
# Experimental: FIG. 1A relates to the concentration of S-acetyl glutathione of 20 mM, and FIG. 1B to the concentration of 10 mM. […] With the evaluation model used, a combination index of less than 1 signifies a synergistic effect, a combination index equal to 1 an additive effect, and a combination index of greater than 1 an antagonistic effect.
# VZV (Strain 4400/95) = conditions: RPE cells
# [1] = S-acetyl glutathione 10 mM alone
# [2] = S-acetyl glutathione 20 mM alone
Structure (SMILES),Virus titre (HSV-1 (McIntyre Strain); ACV 0.5 μM alone),Reduction factor (HSV-1 (McIntyre Strain); ACV 0.5 μM alone),Virus titre (HSV-1 (McIntyre Strain); ACV 1 μM alone),Reduction factor (HSV-1 (McIntyre Strain); ACV 1 μM alone),Virus titre (HSV-1 (McIntyre Strain); ACV 2 μM alone),Reduction factor (HSV-1 (McIntyre Strain); ACV 2 μM alone),"Effectiveness against HSV-1 (HSV-1 (McIntyre Strain); ACV alone, especially in the concentration of 2 μM)",Virus titre (HSV-1 (McIntyre Strain); [1]),Reduction factor (HSV-1 (McIntyre Strain); [1]),Virus titre (HSV-1 (McIntyre Strain); [2]),Reduction factor (HSV-1 (McIntyre Strain); [2]),Concentration from which effective against HSV-1 (HSV-1 (McIntyre Strain); S-acetyl glutathione alone) [mM],Plaque number (VZV (Strain 4400/95); [1]) [%],Plaque number (VZV (Strain 4400/95); [2]) [%]
"Nc1nc2c(ncn2COCCO)c(=O)[nH]1 [ACV, 9-[(2-hydroxyethoxy)methyl)guanine]",3.1 × 10^6 TCID60/ml,6.8,3.3 × 10^5 TCID60/ml,64,3.8 × 10^3 TCID60/ml,5526,clear effectiveness,,,,,,,
CC(=O)SC[C@H](NC(=O)CC[C@H](N)C(=O)O)C(=O)NCC(=O)O [S-acetyl glutathione],,,,,,,,1.5 × 10^6 TCID60/ml,14,2.4 × 10^5 TCID60/ml,91,≥ 10,59,52
